The target in one series is T1, hAPJ (Homo sapiens, UniProt P35414).
T1 sequence (P35414 1-380): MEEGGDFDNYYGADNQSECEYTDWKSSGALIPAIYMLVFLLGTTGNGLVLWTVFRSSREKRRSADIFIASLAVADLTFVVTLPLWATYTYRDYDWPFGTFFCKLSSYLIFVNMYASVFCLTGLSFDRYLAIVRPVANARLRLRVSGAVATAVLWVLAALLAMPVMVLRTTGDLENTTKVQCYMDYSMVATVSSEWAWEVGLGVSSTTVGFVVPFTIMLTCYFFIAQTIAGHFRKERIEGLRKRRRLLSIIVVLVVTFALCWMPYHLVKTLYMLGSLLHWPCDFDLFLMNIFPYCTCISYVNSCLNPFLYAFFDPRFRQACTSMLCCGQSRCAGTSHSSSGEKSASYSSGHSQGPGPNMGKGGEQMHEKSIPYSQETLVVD
In words: hAPJ Calcium Flux Assay. Particulars: Chem-5 APJ stable cells, FLIPR calcium flux stimulation; read-out: hAPJ Ca^2+ Flux EC50. Type of series: cell-based. Summed up:
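Chem-5 cells stably expressing APJ, loaded 1 h with Calcium 4 dye plus 2.5 mM probenecid at 37 °C. Peptides added at final […] in HBSS/HEPES/0.1% BSA, in triplicate.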
In general terms: Calcium assays in cells follow changes in intracellular calcium, usually with a dye or a luminescent sensor.

Series [1] can be described thus: Surrogate Activity-Based Plasma Stability Assay. It counts as in vitro ADME. To be noted: rat. On the procedure: Stability half-life was then calculated by the formula, t½=0.693÷k Surrogate Activity-Based Plasma Stability Assay: […]
2) Calculate slope of value above and […]

Series [2] is described as follows: Plasma Stability Assay (LC-MS). Type of series: in vitro ADME. To be noted: male, Sprague-Dawley, rat. On the procedure:
Plasma Stability Assay: Materials: Working solution: 1 mg/mL test article is prepared in Milli-Q water Extraction solution: Methanol:Acetonitrile:Water (1:1:1) with 0.1% Formic Acid and 400 ng/mL Glyburide. Plasma: Male Sprague-Dawley rat plasma (with sodium heparin), purchased from Bioreclamation LLC (Liverpool, N.Y.). Test article was prepared in one of the following biological matrices: heparinized rat plasma, heparinized rat whole blood or lung homogenate. […] Lung homogenate samples were prepared by diluting lung homogenate to 1 mg/ml protein concentration with phosphate buffered saline (PBS), followed by addition of 5 uL Working solution to 995 uL diluted lung homogenate. The samples were incubated at 37° C. with gentle shaking (65˜75 rpm) in a water bath incubator. […] Afterwards, a pipetting device (Tecan Temo) was used to tranfer the supernatants to another plate and add 50 uL of water to all samples. The plate was vortexed prior to LC-MS analysis. LC-MS Analysis of stability samples HPLC: Agilent 1290 HPLC with autosampler Column: MAC-MOD ACE C18, 3 μm, 30 mm×2.1 mm i.d. Mobile phase A: 0.1% Formic acid in acetonitrile Mobile phase B: 0.1% Formic acid in water Gradient Program: [table]

Setting [3] is: Surrogate Activity based Plasma stability t½.
[4] abbreviates: Surrogate activity-based Plasma stability t½.

pEC50: −log10 of the molar value. Where a SMILES comes first, the peptide text is derived from it. [ ]: non-standard residue; d: D form. Cha = N[C@@H](CC1CCCCC1)C(=O)O; pGlu = O=C1CC[C@@H](C(=O)O)N1; dNle = CCCC[C@@H](N)C(=O)O; dNva = CCC[C@@H](N)C(=O)O; Nle = CCCC[C@H](N)C(=O)O; Aib = CC(C)(N)C(=O)O

Turning to `CCCC[C@@H](NC(=O)[C@@H]1CCCN1C(=O)CNC(=O)[C@H](CCCCN)NC(=O)[C@@H](Cc1c[nH]cn1)NC(=O)[C@@H](C)NC(=O)[C@H](CC(C)C)NC(=O)[C@H](CCCNC(=N)N)NC(=O)[C@@H]1CCCN1C(=O)[C@H](CCCNC(=N)N)NC(=O)[C@@H]1CCC(=O)N1)C(=O)N[C@H](C)C(=O)N[C@H](Cc1ccccc1)C(=O)O` [Example 16, pE-R-P-R-L-a-h-K-G-P-nle-a-f-OH], the pEC50 (commonly the negative decadic logarithm of the EC50, by convention in mol/L) at hAPJ was 8.06. Besides, the half-life in series [1] (setting [3]) and in series [1] (setting [4]) was 6.82 h each time. Besides, the half-life – broadly, the time needed for the level to fall by half in the phase considered – at 5000 ng/mL in series [2] was found to be 7.47 h.
With `CCCC[C@@H](NC(=O)[C@@H]1CCCN1C(=O)CNC(=O)[C@H](CCCCN)NC(=O)[C@H](Cc1ccccc1)NC(=O)[C@@H](C)NC(=O)[C@H](CC(C)C)NC(=O)[C@H](CCCNC(=N)N)NC(=O)[C@@H]1CCCN1C(=O)[C@H](CCCNC(=N)N)NC(=O)[C@@H]1CCC(=O)N1)C(=O)N[C@H](C)C(=O)N[C@H](Cc1ccccc1)C(=O)O` [Example 17, pE-R-P-R-L-a-F-K-G-P-nle-a-f-OH] ([pGlu]RPRL[dA]FKGP[dNle][dA][dF]-OH), on hAPJ, the pEC50 is 8.51. Moreover, the half-life in series [1] (setting [3]) and in series [1] (setting [4]) was over 16.7 h in each case. Moreover, the half-life at 5000 ng/mL in series [2] is 6.08 h.
For the compound `CCCC[C@@H](NC(=O)[C@@H]1CCCN1C(=O)CNC(=O)[C@H](CCCCN)NC(=O)[C@H](Cc1c[nH]cn1)NC(=O)[C@@H](C)NC(=O)[C@H](CC(C)C)NC(=O)[C@H](CCCNC(=N)N)NC(=O)[C@@H]1CCCN1C(=O)[C@H](CCCNC(=N)N)NC(=O)[C@@H]1CCC(=O)N1)C(=O)N[C@H](C)C(=O)N[C@H](Cc1ccccc1)C(=O)O` [Example 29, pE-R-P-R-L-a-H-K-G-P-nle-a-f-OH], the half-life in series [1] (setting [3]) and in series [1] (setting [4]) was 9.42 h each time. Further, the half-life at 5000 ng/mL in series [2] was determined as 2.6 h.
Consider `CCCC[C@@H](NC(=O)[C@@H]1CCCN1C(=O)CNC(=O)[C@H](CCC(N)=O)NC(=O)[C@H](Cc1c[nH]cn1)NC(=O)[C@@H](C)NC(=O)[C@H](CC(C)C)NC(=O)[C@H](CCCNC(=N)N)NC(=O)[C@@H]1CCCN1C(=O)[C@H](CCCNC(=N)N)NC(=O)[C@@H]1CCC(=O)N1)C(=O)N[C@H](C)C(=O)N[C@H](Cc1ccccc1)C(=O)O` [Example 59, pE-R-P-R-L-a-H-Q-G-P-nle-a-f-OH] ([pGlu]RPRL[dA]HQGP[dNle][dA][dF]-OH), for which the pEC50 at hAPJ is 8.13. In series [1] (setting [4]), the half-life worked out at 14.2 h.
Turning to `CCCC[C@@H](NC(=O)[C@@H]1CCCN1C(=O)CNC(=O)[C@H](CCCCN)NC(=O)[C@H](Cc1c[nH]cn1)NC(=O)[C@@H](C)NC(=O)[C@H](CC(C)C)NC(=O)[C@H](CCCNC(=N)N)NC(=O)[C@@H]1CCCN1C(=O)[C@H](CCCNC(=N)N)NC(=O)[C@@H]1CCC(=O)N1)C(=O)N[C@H](CCC(=O)O)C(=O)N[C@H](Cc1ccccc1)C(=O)O` [Example 19, pE-R-P-R-L-a-H-K-G-P-nle-e-f-OH] ([pGlu]RPRL[dA]HKGP[dNle][dE][dF]-OH), the pEC50 at hAPJ is 6.77. For the same compound, the half-life in series [1] (setting [4]) was over 16.7 h.
`CCCC[C@H](NC(=O)[C@@H]1CCCN1C(=O)CNC(=O)[C@H](CCCCN)NC(=O)[C@H](Cc1c[nH]cn1)NC(=O)[C@@H](C)NC(=O)[C@H](CC(C)C)NC(=O)[C@H](CCCNC(=N)N)NC(=O)[C@@H]1CCCN1C(=O)[C@H](CCCNC(=N)N)NC(=O)[C@@H]1CCC(=O)N1)C(=O)N[C@H](C)C(=O)N[C@H](Cc1ccccc1)C(=O)O` [Example 30, pE-R-P-R-L-a-H-K-G-P-Nle-a-f-OH]: at hAPJ, the pEC50 is 8.62. Also, the half-life in series [1] (setting [3]) was found to be 2.13 h; in series [1] (setting [4]), 2.14 h. Besides, in series [2], the half-life at 5000 ng/mL is 2.02 h.
Regarding `CCCC[C@@H](NC(=O)[C@@H]1CCCN1C(=O)CNC(=O)[C@H](CCCCN)NC(=O)[C@H](Cc1c[nH]cn1)NC(=O)[C@@H](C)NC(=O)[C@H](CC(C)C)NC(=O)[C@H](CCCNC(=N)N)NC(=O)[C@@H]1CCCN1C(=O)[C@H](CCCNC(=N)N)NC(=O)[C@@H]1CCC(=O)N1)C(=O)N[C@H](Cc1ccccc1)C(=O)O` [Example 6, pE-R-P-R-L-a-H-K-G-P-nle-f-OH], the negative logarithm of the EC50 (pEC50) on hAPJ is 8.51. The compound further came in with a half-life in series [1] (setting [4]) of over 16.7 h.
Taken in the same sequence, the figures for `CCCC[C@@H](NC(=O)[C@@H]1CCCN1C(=O)CNC(=O)[C@H](CCCCN)NC(=O)[C@H](Cc1c[nH]cn1)NC(=O)[C@@H](CCC)NC(=O)[C@H](CC(C)C)NC(=O)[C@H](CCCNC(=N)N)NC(=O)[C@@H]1CCCN1C(=O)[C@H](CCCNC(=N)N)NC(=O)[C@@H]1CCC(=O)N1)C(=O)N[C@H](C)C(=O)N[C@H](Cc1ccccc1)C(=O)O` [Example 52, pE-R-P-R-L-nva-H-K-G-P-nle-a-f-OH] ([pGlu]RPRL[dNva]HKGP[dNle][dA][dF]-OH) were 7.71 and over 16.7 h.
On to `CCCC[C@@H](NC(=O)[C@@H]1CCCN1C(=O)CNC(=O)[C@H](CCCCN)NC(=O)[C@H](Cc1c[nH]cn1)NC(=O)[C@@H](C)NC(=O)[C@H](CC(C)C)NC(=O)[C@H](CCCNC(=N)N)NC(=O)[C@@H]1CCCN1C(=O)[C@H](CCCNC(=N)N)NC(=O)[C@@H]1CCC(=O)N1)C(=O)N[C@H](C)C(=O)N[C@H](Cc1ccc(O)cc1)C(=O)O` [Example 21, pE-R-P-R-L-a-H-K-G-P-nle-a-y-OH] ([pGlu]RPRL[dA]HKGP[dNle][dA][dY]-OH), for which the pEC50 on hAPJ was 9.05. For the same compound, the half-life in series [1] (setting [4]) is over 16.7 h.
`CCCC[C@@H](NC(=O)[C@@H]1CCCN1C(=O)CNC(=O)[C@H](CCCCN)NC(=O)[C@H](Cc1c[nH]cn1)NC(=O)[C@@H](C)NC(=O)[C@H](CC(C)C)NC(=O)[C@H](CCCNC(=N)N)NC(=O)[C@@H]1CCCN1C(=O)[C@H](CCCNC(=N)N)NC(=O)[C@@H]1CCC(=O)N1)C(=O)N[C@H](CCCNC(=N)N)C(=O)N[C@H](Cc1ccccc1)C(=O)O` [Example 20, pE-R-P-R-L-a-H-K-G-P-nle-r-f-OH] ([pGlu]RPRL[dA]HKGP[dNle][dR][dF]-OH): the pEC50 at hAPJ is 6.04. In series [1] (setting [4]), this compound gave a half-life of over 16.7 h.
In the case of `CCCC[C@H](NC(=O)[C@@H]1CCCN1C(=O)CNC(=O)[C@H](CCCCN)NC(=O)C(C)(C)NC(=O)[C@H](CO)NC(=O)[C@H](CC(C)C)NC(=O)[C@H](CCCNC(=N)N)NC(=O)[C@@H]1CCCN1C(=O)[C@H](CCCNC(=N)N)NC(=O)[C@@H]1CCC(=O)N1)C(=O)N[C@H](C)C(=O)N[C@H](Cc1ccccc1)C(=O)O` [Example 38, pE-R-P-R-L-S-Aib-K-G-P-Nle-a-f-OH] ([pGlu]RPRLS[Aib]KGP[Nle][dA][dF]-OH), the pEC50 on hAPJ was 8.48. The same compound yielded a half-life in series [1] (setting [4]) of over 16.7 h.
As for `CCCC[C@@H](NC(=O)[C@@H]1CCCN1C(=O)CNC(=O)[C@H](CCCCN)NC(=O)[C@H](Cc1c[nH]cn1)NC(=O)[C@@H](CCC)NC(=O)[C@H](CC1CCCCC1)NC(=O)[C@H](CCCNC(=N)N)NC(=O)[C@@H]1CCCN1C(=O)[C@H](CCCNC(=N)N)NC(=O)[C@@H]1CCC(=O)N1)C(=O)N[C@H](C)C(=O)N[C@H](Cc1ccccc1)C(=O)O` [Example 63, pE-R-P-R-Cha-nva-H-K-G-P-nle-a-f-OH] ([pGlu]RPR[Cha][dNva]HKGP[dNle][dA][dF]-OH), the pEC50 on hAPJ was 8.03. In series [1] (setting [4]), this compound came in with a half-life of 3.75 h.

The values above are taken from patent publication US8921307B2, “Synthetic linear apelin mimetics for the treatment of heart failure” (priority 2012, dated 2014).
